Measured values taken from patent US20240336593A1, “Compound Having Antitumor Activity And Use Thereof” (lnnovStoneTherapeutics Limited, priority 2020, published 2024).

biological target: PRMT5 (Homo sapiens (Human), UniProt O14744); test: Inhibitory activity against PRMT5 enzyme by radioisotopic method; assay type: biochemical; details: PRMT5 5 nM, [3H]-SAM 0.3 μM, polypeptide substrate GL-27 100 nM, room temperature
Description: Test Example 1. Test on the inhibitory activity of the compounds of the invention against PRMT5 enzyme by radioisotopic method
Test method: A 1× enzyme reaction buffer (10 mM Tris 8.0 (Sigma, Cat. No. T2694-1L), 0.01% Tween-20 (Sigma, Cat. No. P2287-100 ML), 1 mM DTT (Sigma, Cat. No. D0632-10G)) was prepared. PRMT5 (Active Motif, Cat. No. 31921) and [3H]—SAM (PerkinElmer, Cat. No. NET155V001MC) were added to the 1×enzyme reaction buffer, to prepare a 25/15× mixed solution (PRMT5 final concentration: 5 nM, [3H]—SAM final concentration: 0.3 μM). 15 μL of this solution was transferred into a 384-well microplate (Corning 384-well Polypropylene Storage Microplates, Cat. No. 3657) with various concentrations of the compounds (DMSO final concentration 1%), and incubated at room temperature for 60 minutes. A polypeptide substrate, GL-27 (Ac-[…]-K (Biotin) (GL Biochem, Cat. No. 342095)), was added into the 1×enzyme reaction buffer to prepare a 25/10× substrate solution. Then 10 μL of the polypeptide substrate solution (final concentration of the polypeptide substrate: 100 nM) was added, a reaction was stirred at room temperature for 120 minutes, and then 5 μL 6× ice cold SAM (Sigma, Cat. No. A7007-100 MG) solution was added to stop the reaction (SAM final concentration: 0.125 mM). 25 µL of the reaction mixture was transferred into a FlashPlate (Streptavidin FlashPlate HTS PLUS, High Capacity, 384-well, Perkin Elmer, Cat. No. SMP410A001PK), and incubated at room temperature for 1 h. After washed three times with distilled water containing 0.1% Tween-20, the microplate was read on a MicroBeta reader for CPM data (Counts Per Minute). […] Then the inhibition rate Inh % (Y) corresponding to each concentration (X) was input in EXCEL, and the IC50 value (the half maximal inhibitory concentration) of each compound was calculated with the XLfit plug-in according to the built-in four-parameter fitting equation Y=Bottom+(Top-Bottom)/(1+(IC50/X)[…]).

Sequence of PRMT5 (O14744 whole entry): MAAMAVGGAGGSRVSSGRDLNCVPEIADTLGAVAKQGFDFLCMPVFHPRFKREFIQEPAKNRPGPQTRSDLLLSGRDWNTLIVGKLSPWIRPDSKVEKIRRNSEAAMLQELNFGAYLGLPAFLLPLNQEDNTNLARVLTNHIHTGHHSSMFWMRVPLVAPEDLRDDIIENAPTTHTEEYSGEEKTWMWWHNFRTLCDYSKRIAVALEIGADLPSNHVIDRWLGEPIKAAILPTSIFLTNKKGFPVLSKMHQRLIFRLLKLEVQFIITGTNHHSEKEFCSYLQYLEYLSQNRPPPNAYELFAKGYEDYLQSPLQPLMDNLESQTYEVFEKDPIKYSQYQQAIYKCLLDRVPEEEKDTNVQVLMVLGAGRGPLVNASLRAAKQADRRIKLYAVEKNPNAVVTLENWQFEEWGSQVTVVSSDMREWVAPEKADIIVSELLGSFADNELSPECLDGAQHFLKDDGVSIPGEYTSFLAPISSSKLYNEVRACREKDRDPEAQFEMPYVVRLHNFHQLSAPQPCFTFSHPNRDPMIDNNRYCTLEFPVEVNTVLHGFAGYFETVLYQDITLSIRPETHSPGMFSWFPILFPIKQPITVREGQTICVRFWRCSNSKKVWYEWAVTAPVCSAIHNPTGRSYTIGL
Sequence of PRMT5 (Q9BQA1 whole entry partner): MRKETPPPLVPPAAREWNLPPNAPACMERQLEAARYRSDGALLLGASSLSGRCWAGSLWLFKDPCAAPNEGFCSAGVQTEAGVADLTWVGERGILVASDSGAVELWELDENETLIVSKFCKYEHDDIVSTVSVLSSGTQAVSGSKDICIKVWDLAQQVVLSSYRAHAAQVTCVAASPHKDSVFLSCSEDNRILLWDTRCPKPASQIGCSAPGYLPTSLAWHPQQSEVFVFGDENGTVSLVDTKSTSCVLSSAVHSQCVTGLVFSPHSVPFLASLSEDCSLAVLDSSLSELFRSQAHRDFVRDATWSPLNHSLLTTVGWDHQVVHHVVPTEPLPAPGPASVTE

SMILES	IC50
O[C@H]1CN(c2cc(Nc3ccccc3C3CC3)ncn2)CC[C@@H]1N1CCc2ccccc2C1 (relative stereo) [Example 51, trans-4-(3,4-dihydroisoquinolin-2(1H)-yl)-1-(6-((2-cyclopropylphenyl)amino)pyrimidin-4-yl)piperidin-3-ol]	< 0.1 µM
CC(C)(C)c1cccc(Nc2cc(N3CC[C@H](N4CCc5ccccc5C4)[C@@H](O)C3)ncn2)c1 (relative stereo) [Example 37, trans-1-(6-((3-t-butylphenyl)amino)pyrimidin-4-yl)-4-(3,4-dihydroisoquinolin-2(1H)-yl)piperidin-3-ol]	< 0.1 µM
O=C(C(=O)N1CCC(Nc2cc(C(=O)N3CC[C@H](N4CCc5ccccc5C4)[C@@H](O)C3)ncn2)CC1)C1CC1 (relative stereo) [Example 99, trans-1-cyclopropyl-2-(4-((6-(4-(3,4-dihydroisoquinolin-2(1H)-yl)-3-hydroxypiperidine-1-carbonyl)pyrimidin-4-yl)amino)piperidin-1-yl)ethane-1,2-dione]	< 0.1 µM
CC(=O)N1CCC(CCNc2cc(C(=O)N3CC[C@H](N4CCc5ccccc5C4)[C@@H](O)C3)ncn2)CC1 (relative stereo) [Example 115, trans-1-(4-(2-((6-(4-(3,4-dihydroisoquinolin-2(1H)-yl)-3-hydroxy-piperidine-1-carbonyl)pyrimidin-4-yl)amino)ethyl)piperidin-1-yl)ethanone]	< 0.1 µM
O[C@@H]1CN(c2cc(Nc3ccccc3OCC(F)(F)F)ncn2)CC[C@H]1N1CCc2ccccc2C1 (relative stereo) [Example 91, trans-1-(6-((2-(2,2,2-trifluoroethoxy)phenyl)amino)pyrimidin-4-yl)-4-(3,4-dihydroisoquinolin-2(1H)-yl)piperidin-3-ol]	< 0.1 µM
O[C@H]1CN(c2cc(Nc3cccc(Cl)c3)ncn2)CC[C@@H]1N1CCc2ccccc2C1 (relative stereo) [Example 43, trans-1-(6-((3-chlorophenyl)amino)pyrimidin-4-yl)-4-(3,4-dihydroisoquinolin-2(1H)-yl)piperidin-3-ol]	< 0.1 µM
COc1c(F)cccc1Nc1cc(N2CC[C@@H](N3CCc4ccccc4C3)[C@H](O)C2)ncn1 (relative stereo) [Example 88, trans-1-(6-((3-fluoro-2-methoxyphenyl)amino)pyrimidin-4-yl)-4-(3,4-dihydroisoquinolin-2(1H)-yl)piperidin-3-ol]	< 0.1 µM
O[C@H]1CN(c2cc(Nc3ccc(C4CC4)cc3)ncn2)CC[C@@H]1N1CCc2ccccc2C1 (relative stereo) [Example 38, trans-1-(6-((4-cyclopropylphenyl)amino)pyrimidin-4-yl)-4-(3,4-dihydroisoquinolin-2(1H)-yl)piperidin-3-ol]	< 0.1 µM
O[C@@H]1CN(c2cc(Nc3cccc(N4CCCC4)c3)ncn2)CC[C@H]1N1CCc2ccccc2C1 (relative stereo) [Example 67, trans-4-(3,4-dihydroisoquinolin-2(1H)-yl)-1-(6-((3-(pyrrolidin-1-yl)phenyl)amino)pyrimidin-4-yl)piperidin-3-ol]	< 0.1 µM
O[C@H]1CN(c2cc(Nc3ccccc3Cl)ncn2)CC[C@@H]1N1CCc2ccccc2C1 (relative stereo) [Example 54, trans-4-(3,4-dihydroisoquinolin-2(1H)-yl)-1-(6-((2-chlorophenyl)amino)pyrimidin-4-yl)piperidin-3-ol]	< 0.1 µM
Cc1ccc(Nc2cc(N3CC[C@H](N4CCc5ccccc5C4)[C@@H](O)C3)ncn2)cc1 [Example 41, trans-1-(6-((4-methylphenyl)amino)pyrimidin-4-yl)-4-(3,4-dihydroisoquinolin-2(l H)-yl)piperidin-3-ol]	< 0.1 µM
COc1ccccc1Nc1cc(N2CC[C@H](N3CCc4ccccc4C3)[C@@H](O)C2)ncn1 (relative stereo) [Example 57, trans-4-(3,4-dihydroisoquinolin-2(1H)-yl)-1-(6-((2-methoxyphenyl)amino)pyrimidin-4-yl)piperidin-3-ol]	< 0.1 µM
CC(=O)N1CCC(Nc2cc(C(=O)N3CC[C@H](N4CCc5ccccc5C4)[C@@H](O)C3)nc(N(C)C)n2)CC1 (relative stereo) [Example 118, trans-1-(4-((6-(4-(3,4-dihydroisoquinolin-2(1H)-yl)-3-hydroxypiperidine-1-carbonyl)-2-(dimethylamino)pyrimidin-4-yl)amino)piperidin-1-yl)ethan-1-one]	< 0.1 µM
CC(=O)N1CCC(Nc2cc(C(=O)N3CC[C@H](N4CCc5ccccc5C4)[C@@H](O)C3)nc(-c3ccncc3)n2)CC1 [Example 139]	< 0.1 µM
O[C@@H]1CN(c2cc(Nc3cccc(Cl)c3Cl)ncn2)CC[C@H]1N1CCc2ccccc2C1 [Example 89]	< 0.1 µM
COCCN1CCC(Nc2cc(C(=O)N3CC[C@H](N4CCc5ccccc5C4)[C@@H](O)C3)ncn2)CC1 [Example 96]	< 0.1 µM
O[C@H]1CN(c2cc(Nc3ccccc3N3CCOCC3)ncn2)CC[C@@H]1N1CCc2ccccc2C1 (relative stereo) [Example 50, trans-4-(3,4-dihydroisoquinolin-2(1H)-yl)-1-(6-((2-morpholinylphenyl)-amino)pyrimidin-4-yl)piperidin-3-ol]	< 0.1 µM
COc1cc(F)ccc1Nc1cc(N2CC[C@H](N3CCc4ccccc4C3)[C@@H](O)C2)ncn1 (relative stereo) [Example 93, trans-4-(3,4-dihydroisoquinolin-2(1H)-yl)-1-(6-((4-fluoro-2-methoxyphenyl)amino)pyrimidin-4-yl)piperidin-3-ol]	< 0.1 µM
CC(=O)N1CCC(Nc2cc(C(=O)N3CC[C@@H](N4CCc5ccccc5C4)[C@H](O)C3)nc([S+]([O-])C(C)C)n2)CC1 (stereo partly drawn) [Example 157, 1-(4-((6-((3R,4R)-4-(3,4-dihydroisoquinolin-2(1H)-yl)-3-hydroxypiperidine-1-carbonyl)-2-(isopropylsulfinyl)pyrimidin-4-yl)amino)piperidin-1-yl)ethan-1-one]	< 0.1 µM
CNC(=O)c1ccc(Nc2cc(C(=O)N3CC[C@H](N4CCc5ccccc5C4)[C@@H](O)C3)ncn2)cc1 (relative stereo) [Example 131, trans-4-((6-(4-(3,4-dihydroisoquinolin-2(1H)-yl)-3-hydroxypiperidine-1-carbonyl)pyrimidin-4-yl)amino)-N-methylbenzamide]	< 0.1 µM
CC(=O)N1CCC(Oc2cc(C(=O)N3CC[C@@H](N4CCc5ccccc5C4)[C@H](O)C3)ncn2)CC1 (relative stereo) [Example 142, trans-1-(4-((6-(4-(3,4-dihydroisoquinolin-2(1H)-yl)-3-hydroxypiperidine-1-carbonyl)pyrimidin-4-yl)oxy)piperidin-1-yl)ethan-1-one]	< 0.1 µM
CC(=O)N1CCC(Nc2cc(C(=O)N3CC[C@H](O)[C@@H](N4CCc5ccccc5C4)CC3)ncn2)CC1 [Example 124, 1-(4-((6-((4S,5S)-4-(3,4-dihydroisoquinolin-2(1H)-yl)-5-hydroxyazepane-1-carbonyl)pyrimidin-4-yl)amino)piperidin-1-yl)ethan-1-one]	< 0.1 µM
CC(=O)N1CCC(Sc2cc(C(=O)N3CC[C@H](N4CCc5ccccc5C4)[C@@H](O)C3)ncn2)CC1 (relative stereo) [Example 119, trans-1-(4-((6-(4-(3,4-dihydroisoquinolin-2(1H)-yl)-3-hydroxypiperidine-1-carbonyl)pyrimidin-4-yl)thio)piperidin-1-yl)ethan-1-one]	< 0.1 µM
CC(=O)N1CCC(Nc2cc(C(=O)N3CC[C@H](N4CCc5ccccc5C4)[C@@H](O)C3)nc(-c3ccccc3)n2)CC1 [Example 104]	< 0.1 µM
CC(=O)N1CCC(Nc2cc(C(=O)N3CC[C@@H](N4CCc5ccccc5C4)[C@H](O)C3)nc(OC3CCC(F)(F)CC3)n2)CC1 [Example 154, 1-(4-((2-((4,4-difluorocyclohexyl)oxy)-6-((3R,4R)-4-(3,4-dihydroisoquinolin-2(1H)-yl)-3-hydroxypiperidine-1-carbonyl)pyrimidin-4-yl)amino)-piperidin-1-yl)ethan-1-one]	< 0.1 µM
O[C@@H]1CN(c2cc(Nc3cccc(F)c3F)ncn2)CC[C@H]1N1CCc2ccccc2C1 (relative stereo) [Example 87, trans-1-(6-((2,3-difluorophenyl)amino)pyrimidin-4-yl)-4-(3,4-dihydroisoquinolin-2(1H)-yl)piperidin-3-ol]	< 0.1 µM
O[C@@H]1CN(c2cc(Nc3cccc(N4CCOCC4)c3)ncn2)CC[C@H]1N1CCc2ccccc2C1 (relative stereo) [Example 73, trans-4-(3,4-dihydroisoquinolin-2(1H)-yl)-1-(6-((3-morpholinophenyl)amino)pyrimidin-4-yl)piperidin-3-ol]	< 0.1 µM
